Source: publication PMC11174489, “In Vitro Activation of Human Adrenergic Receptors and Trace Amine-Associated Receptor 1 by Phenethylamine Analogues Present in Food Supplements” (Nutrients, 2024)

Columns and labels:
Format in all cases: cell-based
[1] = biological target: T1, human adrenergic receptor (ADR) α1A (Homo sapiens, UniProt P35348); test: ADRα1A activation, Ca2+ influx (Fluo-8) in overexpressing chem-1 cells; details: Chem-1
T1 construct: host or cells: rat chem-1 cells
T1 sequence (P35348 1-466): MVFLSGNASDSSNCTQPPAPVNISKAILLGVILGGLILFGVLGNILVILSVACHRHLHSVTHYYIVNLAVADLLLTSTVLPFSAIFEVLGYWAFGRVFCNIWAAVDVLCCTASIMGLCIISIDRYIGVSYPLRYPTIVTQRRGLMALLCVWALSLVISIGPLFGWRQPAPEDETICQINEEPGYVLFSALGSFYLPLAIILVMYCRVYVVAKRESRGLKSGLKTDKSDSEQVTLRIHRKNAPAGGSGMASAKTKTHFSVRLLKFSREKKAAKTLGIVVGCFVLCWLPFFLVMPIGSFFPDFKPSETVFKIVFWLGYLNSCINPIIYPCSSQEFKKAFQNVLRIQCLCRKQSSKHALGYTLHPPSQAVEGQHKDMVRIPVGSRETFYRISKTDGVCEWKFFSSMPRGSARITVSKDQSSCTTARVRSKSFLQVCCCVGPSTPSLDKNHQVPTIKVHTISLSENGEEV

[2] = biological target: T2, human adrenergic receptor (ADR) α1B (Homo sapiens, UniProt P35368); test: ADRα1B activation, Ca2+ influx (Fluo-8) in overexpressing chem-1 cells
T2 construct: host or cells: rat chem-1 cells
T2 sequence (P35368 1-520): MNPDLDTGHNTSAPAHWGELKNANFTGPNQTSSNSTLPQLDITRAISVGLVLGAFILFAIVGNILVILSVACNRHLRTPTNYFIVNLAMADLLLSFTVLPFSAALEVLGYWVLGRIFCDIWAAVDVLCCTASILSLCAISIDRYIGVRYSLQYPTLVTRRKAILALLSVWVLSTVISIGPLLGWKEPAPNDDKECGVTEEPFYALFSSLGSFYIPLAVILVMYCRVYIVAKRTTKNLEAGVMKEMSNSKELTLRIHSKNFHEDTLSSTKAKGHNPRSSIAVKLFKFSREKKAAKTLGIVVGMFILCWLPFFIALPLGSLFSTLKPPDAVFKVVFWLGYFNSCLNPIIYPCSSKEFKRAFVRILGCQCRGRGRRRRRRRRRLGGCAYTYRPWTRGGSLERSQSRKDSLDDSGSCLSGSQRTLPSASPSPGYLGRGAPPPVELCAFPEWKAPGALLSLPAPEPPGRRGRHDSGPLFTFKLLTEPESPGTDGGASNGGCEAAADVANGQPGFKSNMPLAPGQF
Text: (§1) Cells overexpressing human ADRs α1A, α1B, α1D, α2A, α2B, β1 and β2 (Eurofins Discovery Services, St. Charles, MO, USA, product numbers: HTS087RTA, HTS158RTA, HTS216RTA, HTS096RTA, HTS157LRTA, HTS104RTA and HTS073RTA, respectively) were used to study the potency (EC50) and efficacy (Emax) of the selected compounds for these receptors by quantifying Ca^2+ influx upon receptor activation. ADRα1A, α1B, α1D, α2A, β1 and β2 were overexpressed in rat chem-1 cells. ADRα2B was overexpressed in HEK293 cells. The cells were seeded (10,000–50,000 cells/well) in a black 96-well plate (VWR International, Leuven, Belgium) and incubated at 37 °C and 5% CO2 for 24 h. After 24 h, the cells were washed with Hank’s balanced salt solution (HBSS) (Gibco, Paisley, UK) containing 0.35 g/L sodium bicarbonate and incubated with 5 µg/mL Fluo-8 AM in HBSS (pH 7.4) supplemented with 2.5 mM probenecid for 1 h. […] Peak tops of the obtained fluorescence response–time curves were corrected for baseline fluorescence and used to construct concentration–response relationships.
(§2) Concentration–response relationships for TAAR1 activation are presented as percentages of the maximal intracellular cAMP level induced by full the TAAR1 agonist phenethylamine and corrected for baseline cAMP accumulation. […] Experiments were run in duplicate in 7–9 independent experiments for ADR and were run in 3–5 independent experiments for TAAR1.

[3] = biological target: T3, human adrenergic receptor (ADR) α1D (Homo sapiens, UniProt P25100); test: ADRα1D activation, Ca2+ influx (Fluo-8) in overexpressing chem-1 cells
T3 construct: host or cells: rat chem-1 cells
T3 sequence (P25100 1-572): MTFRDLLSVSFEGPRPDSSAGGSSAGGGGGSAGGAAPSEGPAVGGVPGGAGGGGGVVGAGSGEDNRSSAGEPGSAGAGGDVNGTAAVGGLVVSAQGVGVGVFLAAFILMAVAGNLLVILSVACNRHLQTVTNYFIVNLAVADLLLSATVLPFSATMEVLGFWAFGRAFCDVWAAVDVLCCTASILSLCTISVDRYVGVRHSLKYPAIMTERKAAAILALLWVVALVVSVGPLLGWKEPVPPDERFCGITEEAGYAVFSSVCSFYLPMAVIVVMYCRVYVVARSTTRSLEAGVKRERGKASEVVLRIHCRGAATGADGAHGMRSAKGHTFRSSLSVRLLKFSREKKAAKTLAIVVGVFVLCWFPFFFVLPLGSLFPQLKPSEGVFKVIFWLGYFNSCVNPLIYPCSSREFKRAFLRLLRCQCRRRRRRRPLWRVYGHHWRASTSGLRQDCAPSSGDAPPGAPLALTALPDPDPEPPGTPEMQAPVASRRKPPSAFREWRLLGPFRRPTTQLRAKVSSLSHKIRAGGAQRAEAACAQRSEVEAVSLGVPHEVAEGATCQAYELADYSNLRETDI

[4] = biological target: T4, human adrenergic receptor (ADR) α2A (Homo sapiens, UniProt P08913); test: ADRα2A activation, Ca2+ influx (Fluo-8) in overexpressing chem-1 cells
T4 construct: host or cells: rat chem-1 cells
T4 sequence (P08913 1-465): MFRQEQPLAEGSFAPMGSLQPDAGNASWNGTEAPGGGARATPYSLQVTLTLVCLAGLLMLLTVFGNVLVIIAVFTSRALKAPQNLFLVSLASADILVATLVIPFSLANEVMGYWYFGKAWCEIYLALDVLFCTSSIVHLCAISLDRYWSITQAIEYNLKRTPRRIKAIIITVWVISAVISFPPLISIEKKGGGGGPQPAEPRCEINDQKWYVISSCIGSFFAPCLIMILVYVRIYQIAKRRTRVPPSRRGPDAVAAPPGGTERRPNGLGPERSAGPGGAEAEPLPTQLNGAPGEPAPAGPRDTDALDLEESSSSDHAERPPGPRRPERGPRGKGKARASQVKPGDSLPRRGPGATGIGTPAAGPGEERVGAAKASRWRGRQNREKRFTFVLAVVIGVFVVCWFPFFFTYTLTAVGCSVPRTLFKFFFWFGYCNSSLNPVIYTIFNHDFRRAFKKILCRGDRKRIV

[5] = biological target: T5, human adrenergic receptor (ADR) β1 (Homo sapiens, UniProt P08588); test: ADRβ1 activation, Ca2+ influx (Fluo-8) in overexpressing chem-1 cells; details: Chem-1, read-out: ADRβ1 Emax
T5 construct: host or cells: rat chem-1 cells
Text: as §1, §2

[6] = biological target: T6, human adrenergic receptor (ADR) β2 (Homo sapiens, UniProt P07550); test: ADRβ2 activation, Ca2+ influx (Fluo-8) in overexpressing chem-1 cells
T6 construct: host or cells: rat chem-1 cells

[7] = Ca2+ response, chem-1 cells, average (95% confidence interval), 7–9 experiments
[8] = % of maximal signal obtained by adrenaline, average (95% CI)

T5 sequence (P08588 whole entry): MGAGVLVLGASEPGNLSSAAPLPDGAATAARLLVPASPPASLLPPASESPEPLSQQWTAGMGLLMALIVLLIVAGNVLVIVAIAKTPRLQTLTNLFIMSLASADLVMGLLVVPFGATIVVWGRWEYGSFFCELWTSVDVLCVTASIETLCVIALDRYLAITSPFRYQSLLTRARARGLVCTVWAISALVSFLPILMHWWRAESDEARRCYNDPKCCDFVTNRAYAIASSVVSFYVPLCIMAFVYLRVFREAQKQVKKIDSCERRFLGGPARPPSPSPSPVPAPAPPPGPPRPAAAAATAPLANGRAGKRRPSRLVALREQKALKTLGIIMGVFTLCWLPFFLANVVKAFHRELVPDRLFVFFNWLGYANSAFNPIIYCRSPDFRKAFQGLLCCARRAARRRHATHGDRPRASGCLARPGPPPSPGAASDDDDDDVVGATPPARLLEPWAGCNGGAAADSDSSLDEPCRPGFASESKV

| Compound | Emax [1] | Emax ([2]; Chem-1, read-out: ADRα1B Emax) | EC50 [3, 7] | Emax ([3]; Chem-1) | Emax ([4]; Chem-1, % of maximal signal obtained by adrenaline, average (95% CI)) | Emax [5] | Emax ([6]; Chem-1) | ADRα1B Emax [2, 8] | EC50 ([2]; Ca2+ response, chem-1 cells, average (95% confidence interval), 7–9 experiments, read-out: ADRα1B EC50) | ADRα1D Emax [3, 8] | EC50 [4, 7] | ADRβ2 Emax [6, 8] | EC50 [6, 7] |
| --- | --- | --- | --- | --- | --- | --- | --- | --- | --- | --- | --- | --- | --- |
| CNC[C@H](O)c1ccc(O)c(O)c1 [Adrenaline, adrenaline, reference compound] | 98% | 99% | 0.0017 µM | 99% | 105% | 99% | 104% |  |  |  |  |  |  |
| Methyltyramine |  |  |  |  |  |  |  | - | > 300 µM | - | > 300 µM | - | > 300 µM |
